From patent publication US10179777B2, “3-(1H-benzimidazol-2-yl)-1H-pyridin-2-one derivatives” (MERCK PATENT GMBH, priority 2015, dated 2019)

Tests used:
[1] = target: T1, ALK2 (GST-modified kinase domain ACVR1(145-509)) (Homo sapiens, UniProt Q04771); assay: ALK2 kinase inhibition assay (33P-ATP filter binding, Reaction Biology); format: biochemical; conditions: casein substrate, 20 μM ATP (Km ATP), 120 min ambient temperature
T1 construct: N-terminally GST-modified kinase domain ACVR1(145-509); GST (N)
T1 sequence (Q04771 145-509): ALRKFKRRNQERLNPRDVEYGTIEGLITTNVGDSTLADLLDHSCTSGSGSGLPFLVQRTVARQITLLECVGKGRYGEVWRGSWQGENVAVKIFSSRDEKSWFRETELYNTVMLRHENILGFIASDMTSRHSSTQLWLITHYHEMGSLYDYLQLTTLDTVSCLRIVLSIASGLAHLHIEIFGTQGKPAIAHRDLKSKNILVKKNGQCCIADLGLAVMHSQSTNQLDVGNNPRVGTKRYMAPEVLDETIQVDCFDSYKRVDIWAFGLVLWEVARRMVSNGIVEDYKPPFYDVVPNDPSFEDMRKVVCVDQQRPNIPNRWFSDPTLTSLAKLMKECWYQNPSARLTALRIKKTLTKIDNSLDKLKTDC
Description: (§1) The protein sequences of the kinases targeted and accompanying information are described in publically available data base http://www.uniprot.org/uniprot/for ALK1 www.uniprot.org/uniprot/P37023, for ALK2 www.uniprot.org/uniprot/Q04771 and for ALK5 www.uniprot.org/uniprot/P36897. IC50 determination of the novel inhibitors described was performed at Reaction Biology Corp., Malvern, Pa., USA, with assay conditions open to public at www.reactionbiology.com/webapps/site/KinaseDetail.aspx?page=Kinases&id=1, and www.reactionbiology.com/webapps/site/Kinase Assay Protocol.aspx. In addition, they were specified previously in Anastassiadis et al. Nat. Biotechnol. 29(11): 1039-1045. doi:10.1038/nbt.2017.
A2) ALK2 Kinase Inhibition Assay
(§2) was performed similar to procedure A1 with N-terminally GST-modified kinase domain ACVR1(145-509) and 1 mg/ml Casein as substrate in reaction buffer of 20 mM HEPES pH 7.5, 10 mM MgCl2, 1 mM EGTA, 0.02% Brij, 0.02 mg/ml BSA, 0.1 mM Na3VO4, 2 mM DTT, 1% DMSO. […] Reactions were carried out at ambient temperature for 120 min, followed by spotting of the reactions onto P81 ion exchange filter paper (Whatman Inc., Picataway, N.J., USA). Unbound phosphate was removed by extensive washing of filters in 0.75% phosphoric acid. After subtraction of background derived from control reactions without enzyme activity, kinase activity data was expressed as the percent remaining kinase activity in test samples compared to vehicle (DMSO) reactions. IC50 values and curve fits were obtained using Prism (GraphPad Software).

[2] = target: T2, ALK1 (GST-modified kinase domain ACVRL1 (139-503)) (Homo sapiens, UniProt P37023); assay: ALK1 kinase inhibition assay (33P-ATP filter binding, Reaction Biology); format: biochemical; conditions: casein substrate, 100 μM ATP (Km ATP), 120 min ambient temperature
T2 construct: N-terminally GST-modified kinase domain ACVRL1 (139-503); GST (N)
T2 sequence (P37023 139-503): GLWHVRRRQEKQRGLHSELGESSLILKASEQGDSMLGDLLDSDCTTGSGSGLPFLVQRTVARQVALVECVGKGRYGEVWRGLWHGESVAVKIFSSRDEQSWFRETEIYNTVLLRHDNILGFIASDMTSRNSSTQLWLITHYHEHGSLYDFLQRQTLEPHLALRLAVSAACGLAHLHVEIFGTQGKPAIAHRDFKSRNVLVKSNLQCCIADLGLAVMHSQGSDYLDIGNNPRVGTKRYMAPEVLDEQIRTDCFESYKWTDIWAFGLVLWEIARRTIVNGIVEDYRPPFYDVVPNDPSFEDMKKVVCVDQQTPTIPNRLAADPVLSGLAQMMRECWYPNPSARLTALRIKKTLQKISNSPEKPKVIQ
Description: as §1
A1) ALK1 Kinase Inhibition Assay
as §2, with “performed” for “performed similar to procedure A1”, “domain ACVRL1 (139-503)” for “domain ACVR1(145-509)”, “and 20” for “and 1”

| IC50 [1] [µM] | IC50 [2] [µM] | SMILES |
| --- | --- | --- |
| 1.1 | 2.6 | NCc1ccc2[nH]c(-c3cc(-c4ccncc4)c[nH]c3=O)nc2c1 [Compound A54, 5-(5-Aminomethyl-1H-benzimidazol-2-yl)-1H-[3,4′]bipyridinyl-6-one] |
| 3.1 | 6.8 | CC(=O)NCc1ccc2[nH]c(-c3cc(-c4ccncc4)c[nH]c3=O)nc2c1 [Compound A55, N-[2-(6-Oxo-1,6-dihydro-[3,4′]bipyridinyl-5-yl)-1H-benzimidazol-5-ylmethyl]-acetamide] |
|  | 3.1 | CCN(CC)CCNC(=O)c1ccc2nc(-c3cc(-c4ccncc4)c[nH]c3=O)[nH]c2c1 [Compound A57, 2-(6-Oxo-1,6-dihydro-[3,4′]bipyridinyl-5-yl)-3H-benzimidazole-5-carboxylic acid (2-diethylamino-ethyl)-amide] |
| 3.1 | 3.3 | CN1CCC(NC(=O)c2ccc3[nH]c(-c4cc(-c5ccncc5)c[nH]c4=O)nc3c2)CC1 [Compound A58, 2-(6-Oxo-1,6-dihydro-[3,4′]bipyridinyl-5-yl)-3H-benzimidazole-5-carboxylic acid (1-methyl-piperidin-4-yl)-amide] |

The remaining lines, values behind:

| SMILES | IC50 [1] [µM] | IC50 [2] [µM] |
| --- | --- | --- |
| O=c1[nH]cc(-c2ccnc3ccccc23)cc1-c1nc2ccccc2[nH]1 [Compound A2, 3-(1H-Benzimidazol-2-yl)-5-quinolin-4-yl-1H-pyridin-2-one] | 0.63 | 1.4 |
| O=c1[nH]cc(-c2ccncc2)cc1-c1nc2ccc(Cl)cc2[nH]1 [Compound A3, 5-(5-Chloro-1H-benzimidazol-2-yl)-1H-[3,4′]bipyridinyl-6-one] |  | 8.9 |
| Cc1ccc2nc(-c3cc(-c4ccncc4)c[nH]c3=O)[nH]c2c1 [Compound A4, 5-(5-Methyl-1H-benzimidazol-2-yl)-1H-[3,4′]bipyridinyl-6-one] | 5.4 | 9.2 |
| Cc1cccc2[nH]c(-c3cc(-c4ccncc4)c[nH]c3=O)nc12 [Compound A5, 5-(4-Methyl-1H-benzimidazol-2-yl)-1H-[3,4′]bipyridinyl-6-one] | 5.7 | 10 |
| O=c1[nH]cc(-c2ccnc3ccccc23)cc1-c1nc2cc(Oc3ccncc3)ccc2[nH]1 [Compound A10, 3-[5-(Pyridin-4-yloxy)-1H-benzimidazol-2-yl]-5-quinolin-4-yl-1H-pyridin-2-one] | 0.43 | 0.95 |
| O=c1[nH]cc(-c2c[nH]c3ccccc23)cc1-c1nc2cc(N3CCNCC3)ccc2[nH]1 [Compound A15, 5-(1H-Indol-3-yl)-3-(6-piperazin-1-yl-1H-benzimidazol-2-yl)-1H-pyridin-2-one] |  | 3.5 |
| CN1CCN(c2ccc3[nH]c(-c4cc(-c5ccncc5)c[nH]c4=O)nc3c2)CC1 [Compound A28, 5-[5-(4-Methyl-piperazin-1-yl)-1H-benzimidazol-2-yl]-1H-[3,4′]bipyridinyl-6-one] | 0.099 |  |
| CN1CCN(c2ccc3[nH]c(-c4cc(-c5cnn(C)c5)c[nH]c4=O)nc3c2)CC1 [Compound A30, 3-[5-(4-Methyl-piperazin-1-yl)-1H-benzimidazol-2-yl]-5-(1-methyl-1H-pyrazol-4-yl)-1H-pyridin-2-one] | 0.71 | 1.8 |
| CN1CCN(c2ccc3[nH]c(-c4cc(-c5cccnc5)c[nH]c4=O)nc3c2)CC1 [Compound A31, 5-[5-(4-Methyl-piperazin-1-yl)-1H-benzimidazol-2-yl]-1H-[3,3′]bipyridinyl-6-one] | 3.4 | 5.5 |
| O=c1[nH]cc(-c2ccnc3[nH]ccc23)cc1-c1nc2ccccc2[nH]1 [Compound A39, 3-(1H-Benzimidazol-2-yl)-5-(1H-pyrrolo[2,3-b]pyridin-4-yl)-1H-pyridin-2-one] | 0.12 | 0.19 |
